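Five compound concentrations were applied to cells in 96-well plates for 48 hours; endpoints were derived by simple linear interpolation of the resulting dose-response curve. GI50 = concentration required for 50% inhibition of growth.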 Activity calls are given as the source filed them. No stated cut-off is given here; in the data, active = GI50 up to about 1.1 µM and inactive = higher. A value given as a limit tells only on which side of the number the result lay.

Test systems include OVCAR-3; MOLT-4; HCT-15; ACHN; OVCAR-8; SNB-75; SNB-19; DU-145; TK-10; BT-549; SN12C; NCI-H460; CAKI-1; IGROV-1; SF-295; NCI/ADR-RES; SK-MEL-2; UACC-62; SR.
What all share (experiment): DTP human tumour cell line panel, 48 h

For the compound `O=C1/C(=N\NC(=S)NC2CCCCC2)c2cc([N+](=O)[O-])ccc2N1CN1CCOCC1`, the GI50 was 5.86 µM (inactive) with OVCAR-3; 1.71 µM (inactive) in the assay with MOLT-4; 2.39 µM in the assay with HCT-15; 5.11 µM (inactive) with ACHN; 3.9 µM (inactive) in the assay with OVCAR-8; 11.5 µM (inactive) in the assay with SNB-75. For the same compound, the GI50 in the assay on SNB-19 is 7.87 µM (inactive); with DU-145 it was 11 µM (inactive); in the assay on TK-10 it was 6.76 µM (inactive); in the assay with BT-549, 4.86 µM (inactive); with SN12C, 3.72 µM (inactive); in the assay on NCI-H460, 2.55 µM (inactive). Also, the GI50 is 3.3 µM (inactive) in the assay on CAKI-1; 1.51 µM (inactive) with IGROV-1; 3.67 µM (inactive) with SF-295; 3.26 µM (inactive) in the assay with NCI/ADR-RES; 11.7 µM (inactive) in the assay with SK-MEL-2; 7.89 µM (inactive) in the assay on UACC-62. For the same compound, the GI50 in the assay with SR is 1.14 µM (inactive).
As for `CO/C(N)=C(C#N)/N=C/c1ccccc1`, the GI50 in the assay with OVCAR-3 was > 100 µM (inactive); in the assay on MOLT-4 it was > 100 µM (inactive); in the assay with HCT-15, above 100 µM; in the assay with ACHN, > 100 µM (inactive); in the assay on OVCAR-8, > 100 µM (inactive); in the assay with SNB-75, > 100 µM (inactive). The GI50 is 66.2 µM (inactive) with SNB-19; > 100 µM (inactive) with DU-145; > 100 µM (inactive) in the assay with TK-10; > 100 µM (inactive) with BT-549; > 100 µM (inactive) in the assay with SN12C; > 100 µM (inactive) in the assay on NCI-H460. In addition, the GI50 in the assay on CAKI-1 was > 100 µM (inactive); in the assay on IGROV-1, > 100 µM (inactive); in the assay on SF-295, > 100 µM (inactive); with NCI/ADR-RES it was > 100 µM (inactive); in the assay with SK-MEL-2, > 100 µM (inactive); with UACC-62 it was 48 µM (inactive). In the assay with SR, the GI50 was > 100 µM (inactive).
For `COc1cc2ncnc(NS(=O)(=O)c3cc4ccccc4s3)c2cc1OC`, the GI50 with OVCAR-3 was > 100 µM (inactive); in the assay on MOLT-4, > 100 µM (inactive); in the assay on HCT-15, above 100 µM; in the assay with ACHN, > 100 µM (inactive); with OVCAR-8, > 100 µM (inactive); in the assay on SNB-75, 47.8 µM (inactive). Besides, the GI50 with SNB-19 is > 100 µM (inactive); in the assay on DU-145 it was > 100 µM (inactive); with TK-10 it was > 100 µM (inactive); with BT-549 it was > 100 µM (inactive); in the assay with SN12C, 70.5 µM (inactive); in the assay with NCI-H460, > 100 µM (inactive). In addition, the GI50 is > 100 µM (inactive) with CAKI-1; 81.5 µM (inactive) in the assay with IGROV-1; > 100 µM (inactive) with SF-295; > 100 µM (inactive) in the assay on NCI/ADR-RES; > 100 µM (inactive) in the assay with SK-MEL-2; 89.1 µM (inactive) in the assay with UACC-62. For the same compound, the GI50 in the assay on SR is > 100 µM (inactive).
Take `N#CC1=C(N)OC2=C(CCCc3ccc([N+](=O)[O-])cc32)C1c1ccccc1` (configuration not stated): the GI50 in the assay on OVCAR-3 was 2.21 µM (inactive); in the assay with MOLT-4 it was 3.69 µM (inactive); in the assay with HCT-15, 2.45 µM; in the assay on ACHN, 10.8 µM (inactive); with OVCAR-8, 7.48 µM (inactive); in the assay on SNB-75, 82.8 µM (inactive). Moreover, the GI50 with SNB-19 was 5.86 µM (inactive); in the assay with DU-145 it was 4.86 µM (inactive); in the assay with TK-10, 12.4 µM (inactive); in the assay on BT-549 it was 4.5 µM (inactive); with SN12C, 6 µM (inactive); with NCI-H460, 4.49 µM (inactive). Besides, the GI50 was 9.25 µM (inactive) with CAKI-1; 4.19 µM (inactive) with IGROV-1; 3.21 µM (inactive) in the assay on SF-295; 2.38 µM (inactive) in the assay on NCI/ADR-RES; 4.58 µM (inactive) in the assay with SK-MEL-2; 1.98 µM (inactive) with UACC-62. In addition, the GI50 in the assay with SR was 2.36 µM (inactive).
As for `O=C1/C(=C/c2ccccc2)CCC/C1=C\c1ccc(O)c(CN2CCCCC2)c1`, the GI50 in the assay on OVCAR-3 was 6.98 µM (inactive); with MOLT-4 it was 3.1 µM (inactive); in the assay on HCT-15 it was 1.78 µM; in the assay on ACHN, 1.81 µM (inactive); with OVCAR-8, 3.78 µM (inactive); with SNB-75 it was 6.37 µM (inactive). The GI50 in the assay on SNB-19 was 9.35 µM (inactive); in the assay on DU-145, 2.62 µM (inactive); in the assay with TK-10, 15.2 µM (inactive); in the assay with BT-549, 2.84 µM (inactive); in the assay with SN12C it was 2.82 µM (inactive); in the assay on NCI-H460 it was 4.66 µM (inactive). In addition, the GI50 is 8.07 µM (inactive) in the assay with CAKI-1; 3.72 µM (inactive) in the assay on IGROV-1; 5.35 µM (inactive) with SF-295; 2.69 µM (inactive) with NCI/ADR-RES; 11.9 µM (inactive) in the assay on SK-MEL-2; 3.59 µM (inactive) in the assay with UACC-62. The GI50 in the assay with SR is 1.05 µM (active).
`CN(C)CCCCN1c2ccccc2Sc2cc(N=[N+]=[N-])ccc21`: the GI50 with OVCAR-3 is 1.89 µM (inactive); with MOLT-4 it was 1.93 µM (inactive); with HCT-15, 1.85 µM; with ACHN, 1.99 µM (inactive); with OVCAR-8, 1.69 µM (inactive); in the assay with SNB-75, 1.8 µM (inactive). The GI50 was 5.75 µM (inactive) with SNB-19; 2.1 µM (inactive) in the assay with DU-145; 2.02 µM (inactive) with TK-10; 11 µM (inactive) in the assay on BT-549; 3.48 µM (inactive) with SN12C; 1.89 µM (inactive) in the assay on NCI-H460. In addition, the GI50 with CAKI-1 was 1.84 µM (inactive); with IGROV-1, 1.73 µM (inactive); in the assay with SF-295, 1.96 µM (inactive); with NCI/ADR-RES, 1.75 µM (inactive); in the assay with SK-MEL-2, 1.97 µM (inactive); in the assay with UACC-62, 1.85 µM (inactive). Further, in the assay with SR, the GI50 was 2.54 µM (inactive).
As to `C/C=C\C(C)=C/C(C)C(=O)CC(O)CC1CC(=O)NC(=O)C1` (configuration not stated), the GI50 with OVCAR-3 is 22.3 µM (inactive); in the assay on MOLT-4, 4.79 µM (inactive); in the assay on HCT-15, 13.4 µM; in the assay with ACHN it was 17.5 µM (inactive); in the assay on OVCAR-8, 8.71 µM (inactive); in the assay on SNB-75, 5.27 µM (inactive). Moreover, the GI50 in the assay on SNB-19 is 17.8 µM (inactive); with DU-145, 19.1 µM (inactive); in the assay on TK-10, 49.2 µM (inactive); with BT-549, 34.2 µM (inactive); in the assay on SN12C, 13 µM (inactive); in the assay with NCI-H460, 14.8 µM (inactive). Moreover, the GI50 in the assay with CAKI-1 is 7.13 µM (inactive); with IGROV-1 it was 19 µM (inactive); in the assay with SF-295, 5.79 µM (inactive); in the assay on NCI/ADR-RES, 4.71 µM (inactive); with SK-MEL-2, 13.6 µM (inactive); in the assay on UACC-62 it was 9.73 µM (inactive). For the same compound, the GI50 in the assay with SR was 10.9 µM (inactive).
Consider `COc1cc(CCNC2=CC(=O)c3cccnc3C2=O)ccc1O`, for which the GI50 was 2.04 µM (inactive) in the assay on OVCAR-3; 4.09 µM (inactive) with MOLT-4; 1.18 µM in the assay with HCT-15; 1.31 µM (inactive) with ACHN; 2.26 µM (inactive) with OVCAR-8; 0.83 µM (active) in the assay on SNB-75. Also, the GI50 is 1.61 µM (inactive) in the assay with SNB-19; 1.72 µM (inactive) in the assay with DU-145; 7.96 µM (inactive) with TK-10; 1.37 µM (inactive) in the assay on BT-549; 0.944 µM (active) in the assay on SN12C; 1.09 µM (active) in the assay with NCI-H460. Further, the GI50 in the assay with CAKI-1 is 1.39 µM (inactive); in the assay on IGROV-1, 1.44 µM (inactive); with SF-295, 1.32 µM (inactive); with NCI/ADR-RES, 2.55 µM (inactive); in the assay with SK-MEL-2 it was 1.35 µM (inactive); in the assay with UACC-62, 0.957 µM (active). In the assay on SR, the GI50 is 1.87 µM (inactive).

The term GI50 denotes the concentration giving 50% growth inhibition.
